# “Also recorded” adds a separate entry of the source.
# Assays:
# [1] = tested on: endogenous insulin message; test: Secondary confirmatory assay, endogenous insulin message in T6PNE cells; assay type: cell-based, human
# [2] = molecular target: T1, HNF4α (Homo sapiens, UniProt P41235); test: HNF4α subcellular localization; assay type: cell-based
# T1 sequence (P41235 1-474): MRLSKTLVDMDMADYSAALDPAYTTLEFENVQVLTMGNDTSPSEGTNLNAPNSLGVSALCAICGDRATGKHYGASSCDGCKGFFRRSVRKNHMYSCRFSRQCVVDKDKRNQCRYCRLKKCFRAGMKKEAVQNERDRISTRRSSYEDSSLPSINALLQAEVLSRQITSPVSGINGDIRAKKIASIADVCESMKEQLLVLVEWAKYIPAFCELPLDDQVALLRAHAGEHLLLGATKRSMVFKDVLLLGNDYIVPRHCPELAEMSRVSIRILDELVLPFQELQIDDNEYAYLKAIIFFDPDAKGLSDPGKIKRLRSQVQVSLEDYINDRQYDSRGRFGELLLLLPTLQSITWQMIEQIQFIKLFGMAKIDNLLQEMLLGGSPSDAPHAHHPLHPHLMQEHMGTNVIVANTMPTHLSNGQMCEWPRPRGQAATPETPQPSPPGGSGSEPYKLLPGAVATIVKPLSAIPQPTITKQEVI
# Source text: Many ligands for nuclear receptor subfamilies induce the translocation of their receptors between the cytoplasm and the nucleus.
# [3] = tested on: HNF1α transcription; test: HNF1α transcription; assay type: cell-based
# Method: HNF1α is a downstream target of HNF4α and has a known binding site on the human insulin gene promoter. […] It is unclear whether HNF4α is modulating the insulin promoter directly or indirectly through a downstream target. Overexpression of HNF1α or HNF4α would overcome the repressive effects of BIM5078. The repressive effect of BIM5078 was lost when it was added to T6PNE cells with high levels of induced E47 (FIG. 8). High E47 levels are thought to resemble the normal state of a β-cell while low levels of E47 to simulate the stress condition.
# [4] = molecular target: T2, human PPARγ (Homo sapiens, UniProt P37231); test: PPAR response element (PPRE)-luciferase reporter assay in HeLa cells; assay type: cell-based; conditions: PPRE reporter plasmid with or without human PPARγ expression vector
# T2 construct: expressed in transfected cells; host or cells: HeLa cells
# T2 sequence (P37231 1-505): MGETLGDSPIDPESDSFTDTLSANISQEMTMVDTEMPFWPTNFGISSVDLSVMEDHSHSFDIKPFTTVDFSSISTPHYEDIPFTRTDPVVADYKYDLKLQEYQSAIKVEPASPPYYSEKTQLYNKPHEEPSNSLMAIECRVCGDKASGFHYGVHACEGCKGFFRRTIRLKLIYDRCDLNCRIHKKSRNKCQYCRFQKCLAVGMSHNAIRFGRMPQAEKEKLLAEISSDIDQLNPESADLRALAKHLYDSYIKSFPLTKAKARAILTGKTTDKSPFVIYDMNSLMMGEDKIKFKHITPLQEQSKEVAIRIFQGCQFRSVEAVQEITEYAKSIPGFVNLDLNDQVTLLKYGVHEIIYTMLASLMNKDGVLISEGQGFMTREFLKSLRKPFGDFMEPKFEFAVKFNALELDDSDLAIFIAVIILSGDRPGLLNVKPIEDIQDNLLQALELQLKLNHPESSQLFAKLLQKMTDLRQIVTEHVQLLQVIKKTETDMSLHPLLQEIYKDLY
# Method: The core structure of BIM5078, benzimidazole, is related to known PPARγ compounds that functions as agonists or antagonists. BIM5078 was used in a PPAR response element (PPRE)-luciferase reporter assay. HeLa cells were co-transfected with a PPAR response element (PPRE) reporter plasmid and a human PPARγ expression vector. […] Known PPARγ agonists were used as positive controls. The same PPARγ agonist compounds were tested on T6PNE ins-eGFP for their ability to repress the insulin promoter. Known PPARγ agonists are unable to suppress insulin gene transcription. Similarly, other PPAR agonists of the alpha and delta class were also negative in the assay. However, because HNF4α also binds to PPREs, BIM5078's ability to bind HNF4α was further investigated.
# [5] = HBV surface antigen levels in Huh7 cells transfected with wild-type HBV construct (pWTD); assay type: cell-based, Hepatitis B virus
# Source text: (§1) The HBsAg is seen as doublet bands with different glycosylation forms (GP33 and GP36).
# (§2) BIM5078 is an HNF4α antagonist and can be useful in treatment of diseases involving HNF4α modulation. There are a number of HNF4α binding sites in the HBV genome, including the enhancer region, the core promoter and the polymerase. BIM5078 can downregulate the core and polymerase, and it has been discovered that it can effectively suppress or eliminate HBV proliferation. Also, the HNF4α binding sites are well-conserved and no mutations of these sites have yet been discovered in the various HBV strains. Thus, targeting HNF4α can circumvent the resistance seen with traditional therapies. […] The ability of the HNF4α antagonist BIM5078 to reduce viral production in Huh7 cells transfected with the wild-type HBV construct (pWTD) was tested. […] The large decrease in the two glycosylation forms of the surface antigen was visualized as doublet bands (FIG. 9).
# [6] = tested on: HBV; test: as above; assay type: cell-based, Hepatitis B virus; conditions: GP33 and GP36 doublet bands
# Source text: as §1, §2
# [7] = hoFH patients, ezetimibe 10 mg/day added to statin 80 mg/day; cited from earlier work
# [8] = tested on: human insulin promoter; test: High-throughput screen / confirmatory assay, insulin promoter-GFP (ins-GFP) transgene in T6PNE cells; assay type: cell-based; conditions: T6PNE ins-eGFP cells
# Source text: Primary β-cells are in short supply and have a strong tendency to undergo apoptosis when manipulated in culture. Therefore, a β-cell model was used for the studies regarding β-cell growth and differentiation. T6PNE cells were derived from human fetal islets and were engineered to express the transcription factors PDX-1, NeuroD1, and E47, which are all present in the human β-cell. It was observed that induction of E47 upregulates the expression of many genes associated with β-cell function, including insulin. Consistent with what occurs in primary β-cells, it also was observed that E47 induction caused growth arrest in the cell line. Therefore, E47 was […] in T6PNE cells. […] Therefore, expression in the transfunctioned cell can be used as a baseline so both up and down regulators of the insulin promoter can be monitored in the screening assays. […] Insulin expression was monitored and visualized by the ins-GFP transgene. Hits were determined and dependent on the ability to differentiate between a baseline condition and the corresponding positive or negative control. […]
# The HTS was performed in a 384-well format where primed T6PNE cells express the ins-GFP transgene and the test compound was added 24 hours later. […] The Images were then analyzed using algorithms (Jeff Price at the Screening Center at the Burnham Institute). […]
molecule,measurement,setting,value
4-hydroxytamoxifen [reference compound],endogenous insulin message with E47 induction,[1]; T6PNE cells with inducible E47,upregulated in a dose-dependent manner
"Cc1nc2ccccc2n1S(=O)(=O)c1cc([N+](=O)[O-])ccc1Cl [BIM5078, 1-(2-Chloro-5-nitrophenylsulfonyl)-2-methyl-1H-benzo[d]imidazole]",HNF4α localization upon addition of compound,[2],localized entirely in the nucleus
same,HNF1α transcription,[3],decrease the HNF1α transcription
same,activation of PPRE reporter,[4],activated the PPRE
same,actin levels,[5],no dependence
same,HBV surface antigen (HBsAg) levels,[6],decreased their levels of surface antigen; also recorded: decreased the HBsAg protein expression
same,repressive effect on insulin expression at high E47,[1]; T6PNE cells with high levels of induced E47 (high 4-hydroxytamoxifen),lost
O=C1[C@H](CC[C@H](O)c2ccc(F)cc2)[C@@H](c2ccc(O)cc2)N1c1ccc(F)cc1 [ezetimibe],total reduction of LDL-C levels,[7],27%
CCCCCCCCCCCCCCCC(=O)O [palmitic acid],"insulin promoter activity / insulin gene transcription, effect in words",[8],suppresses the insulin promoter activity in a dose-dependent fashion
